Measured values from ChEMBL document CHEMBL1201862, “PubChem BioAssay data set” (2004).
The source made the active and inactive calls.

Legend:
[1] = target: Heat shock protein HSP 90-alpha (Homo sapiens, UniProt P07900); test: Luminescence-based dose response biochemical high throughput screening assay for inhibitors of the Heat Shock Protein 90 (HSP90). [Related pubchem assays: 1831 (Summary AID.), 1846 (Confirmation screen.), 1789 (Primary screen.)]
[2] = HepG2 cell cytotoxicity, dose response, cytotoxicity control, CellTiter-Glo luminescence, dry powder, set 20 (AID 1117291); assay type: functional, cell-based
[3] = HEK293T cell cytotoxicity, dose response, cytotoxicity control, CellTiter-Glo luminescence, dry powder, set 20 (AID 1117293); assay type: functional, cell-based; conditions: HEK293
[4] = target: T1, Calpain-2 catalytic subunit (Sus scrofa, UniProt P43367); test: pig calpain II inhibitor potency, dose response, biochemical, fluorogenic peptide substrate (AID 1420); assay type: functional
T1 sequence (P43367 whole entry): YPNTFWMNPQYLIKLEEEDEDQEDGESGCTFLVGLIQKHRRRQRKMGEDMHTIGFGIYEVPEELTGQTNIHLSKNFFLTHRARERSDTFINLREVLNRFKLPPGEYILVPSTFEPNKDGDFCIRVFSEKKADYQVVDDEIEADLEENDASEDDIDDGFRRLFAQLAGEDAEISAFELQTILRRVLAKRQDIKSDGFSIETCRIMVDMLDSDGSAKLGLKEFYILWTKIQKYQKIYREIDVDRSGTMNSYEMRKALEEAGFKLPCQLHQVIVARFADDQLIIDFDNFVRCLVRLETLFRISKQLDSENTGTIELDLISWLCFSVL

[5] = target: Transthyretin (Homo sapiens, UniProt P02766); test: Luminescence-based cell-based high throughput dose response assay to identify activators of Transthyretin (TTR) transcription.; assay type: functional
[6] = target: Induced myeloid leukemia cell differentiation protein Mcl-1 (Homo sapiens, UniProt Q07820); test: MCL1-BIM BH3 interaction inhibitors, dose response, biochemical, fluorescence polarization, BIM-BH3 peptide, 1536-well (AID 2217)
[7] = target: Bcl-2-like protein 1 (Homo sapiens, UniProt Q07817); test: BCL-XL inhibitors, dose response, selectivity assay for MCL1 inhibitor project, biochemical, fluorescence polarization, 1536-well (AID 2218)
[8] = target: Protein Tat (Human immunodeficiency virus type 1 group M subtype B (isolate HXB2)(HIV-1), UniProt P04608); assay type: functional;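 also: tat binding to TAR RNA read out by fluorescence polarization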
[9] = THP-1 cell cytotoxicity, dose response, cytotoxicity control for Vif-APOBEC3G degradation inhibitor project, THP-1 cells (AID 1117359); assay type: functional; conditions: Human immunodeficiency virus 1, THP-1
[10] = inhibitors of Vif binding to APOBEC3G peptide, primary screen, biochemical, TR-FRET, GST-Vif 1-94, biotin-A3G peptide, dose response retest (AID 1117319); assay type: functional;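 also: TR-FRET signal of purified GST-Vif binding a biotinylated A3G peptide; inhibitors lower the FRET signal by blocking Vif and A3G binding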
[11] = target: Metabotropic glutamate receptor 7 (Homo sapiens, UniProt Q14831); test: mGlu7 positive allosteric modulators, dose response, cell-based, calcium mobilization, Galpha15 (AID 743384); assay type: functional
Sequence of Metabotropic glutamate receptor 7 (Q14831 whole entry): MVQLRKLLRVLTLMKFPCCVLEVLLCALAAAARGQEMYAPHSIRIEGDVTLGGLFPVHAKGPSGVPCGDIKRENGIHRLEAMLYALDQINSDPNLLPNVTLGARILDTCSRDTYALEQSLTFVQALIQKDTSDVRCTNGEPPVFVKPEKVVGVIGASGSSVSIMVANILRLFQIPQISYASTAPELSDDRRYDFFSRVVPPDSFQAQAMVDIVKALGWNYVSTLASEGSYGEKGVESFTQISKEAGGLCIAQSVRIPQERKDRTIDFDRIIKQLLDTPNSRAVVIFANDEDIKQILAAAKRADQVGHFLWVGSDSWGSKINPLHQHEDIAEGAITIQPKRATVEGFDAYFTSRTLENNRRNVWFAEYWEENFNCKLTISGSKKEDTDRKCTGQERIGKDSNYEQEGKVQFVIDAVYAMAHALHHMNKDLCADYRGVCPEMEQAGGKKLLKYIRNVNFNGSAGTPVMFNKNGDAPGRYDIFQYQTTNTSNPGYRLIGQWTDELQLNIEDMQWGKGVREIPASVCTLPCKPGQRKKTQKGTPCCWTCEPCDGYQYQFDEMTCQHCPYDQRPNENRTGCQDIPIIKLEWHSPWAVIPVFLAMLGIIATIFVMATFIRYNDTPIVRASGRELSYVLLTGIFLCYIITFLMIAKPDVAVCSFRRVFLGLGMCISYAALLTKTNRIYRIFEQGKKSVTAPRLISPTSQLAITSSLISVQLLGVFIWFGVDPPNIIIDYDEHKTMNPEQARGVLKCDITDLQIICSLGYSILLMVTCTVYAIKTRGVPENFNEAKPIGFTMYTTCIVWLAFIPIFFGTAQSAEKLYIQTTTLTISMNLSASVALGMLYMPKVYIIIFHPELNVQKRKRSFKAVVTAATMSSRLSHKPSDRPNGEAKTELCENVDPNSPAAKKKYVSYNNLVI

Sequence of Bcl-2-like protein 1 (Q07817 whole entry): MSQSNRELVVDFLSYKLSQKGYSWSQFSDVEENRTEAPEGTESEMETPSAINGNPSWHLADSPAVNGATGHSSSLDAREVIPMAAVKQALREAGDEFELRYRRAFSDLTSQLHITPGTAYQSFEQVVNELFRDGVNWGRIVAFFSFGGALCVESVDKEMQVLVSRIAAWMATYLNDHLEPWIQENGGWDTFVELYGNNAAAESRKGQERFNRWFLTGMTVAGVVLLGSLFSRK
Sequence of Protein Tat (P04608 whole entry): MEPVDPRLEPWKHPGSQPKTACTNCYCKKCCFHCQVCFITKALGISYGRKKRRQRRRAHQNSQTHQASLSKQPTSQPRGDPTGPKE
Sequence of Induced myeloid leukemia cell differentiation protein Mcl-1 (Q07820 whole entry): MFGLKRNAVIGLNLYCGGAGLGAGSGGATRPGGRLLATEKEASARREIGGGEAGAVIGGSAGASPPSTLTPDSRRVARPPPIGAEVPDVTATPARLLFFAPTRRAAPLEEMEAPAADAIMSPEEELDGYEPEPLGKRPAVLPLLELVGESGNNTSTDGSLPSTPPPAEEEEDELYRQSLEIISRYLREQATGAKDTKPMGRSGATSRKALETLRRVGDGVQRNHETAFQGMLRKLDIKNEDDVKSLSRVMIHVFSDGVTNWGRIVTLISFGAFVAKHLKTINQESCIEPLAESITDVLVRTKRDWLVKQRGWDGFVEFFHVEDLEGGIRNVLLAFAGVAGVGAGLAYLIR

O=[N+]([O-])c1ccc(S(=O)(=O)N2CCN=C2SCc2ccc(F)cc2)cc1
IC50 [1]: 4.79 µM (active)

O=S(=O)(Nc1cc(C(F)(F)F)ccc1N1CCCCC1)c1cc(Cl)cc(Cl)c1
AC50 [2]: 45.8 µM (active)
AC50 [3]: 41 µM (active)

c1cc2c(cc1C1=Nn3c(nnc3C3CCCCC3)SC1)OCO2
IC50 [4]: 10.9 µM (not active)
EC50 [5]: > 167 µM (inactive)

O=C(c1cc(-c2ccco2)nn1-c1cccc(Cl)c1)N1CCCCC1
IC50 [6]: > 109 µM (not active)
IC50 [7]: > 109 µM (not active)
IC50 [8]: > 100 µM (inconclusive)
CC50 [9]: > 40 µM (active)
IC50 [10]: > 60.7 µM (active)

CC(=O)Nc1ccc(SCC(=O)c2cc(C)n(-c3cccc(F)c3)c2C)cc1
EC50 [11]: 1.6 µM (active)
